Results from ChEMBL document CHEMBL5620396, “Phenotypic screening identifies a trisubstituted imidazo[1,2-a]pyridine series that induces differentiation in multiple AML cell lines” (Eur J Med Chem, 2023).
Converted amounts (≈) assume the structure as drawn. The source made the active and inactive calls. The rule behind the calls is not given here.

Legend:
[1] = Semi-thermodynamic aqueous solubility of compound; assay type: physicochemical; details: buffer; read-out: Therm_solubility
HL-60 [2] = assay: Induction of differentiation in human HL-60 cells assessed as upregulation of CD11b response at 10 uM incubated for 4 days by flow cytometry analysis relative to control; assay type: functional; details: time 4 day
HL-60 [3] = assay: Induction of differentiation in human HL-60 cells assessed as upregulation of CD11b response at 1 uM incubated for 4 days by flow cytometry analysis relative to control; assay type: functional; details: time 4 day
HL-60 [4] = assay: Induction of differentiation in human HL-60 cells assessed as reduction in cell number at 10 uM incubated for 4 days by acridine orange/DAPI staining based analysis; assay type: functional; details: time 4.0 day
THP-1 [5] = assay: Induction of differentiation in human THP-1 cells assessed as reduction in cell number at 10 uM incubated for 4 days by acridine orange/DAPI staining based analysis; assay type: functional; details: time 4.0 day
OCI-AML-3 [6] = assay: Induction of differentiation in human OCI-AML-3 cells assessed as reduction in cell number at 10 uM incubated for 4 days by acridine orange/DAPI staining based analysis; assay type: functional; details: time 4.0 day
KG-1 [7] = assay: Induction of differentiation in human KG-1 cells assessed as reduction in cell number at 10 uM incubated for 4 days by acridine orange/DAPI staining based analysis; assay type: functional; details: time 4.0 day
ME-1 [8] = assay: Induction of differentiation in human ME-1 cells assessed as reduction in cell number at 10 uM incubated for 4 days by acridine orange/DAPI staining based analysis; assay type: functional; details: time 4.0 day
Kasumi 1 [9] = assay: Induction of differentiation in human Kasumi 1 cells assessed as reduction in cell number at 10 uM incubated for 4 days by acridine orange/DAPI staining based analysis; assay type: functional; details: time 4.0 day
HL-60 [10] = assay: Induction of morphological changes in human HL-60 cells assessed as variation in cell size at 10 uM; assay type: functional, cell-based
HL-60 [11] = assay: Induction of morphological changes in human HL-60 cells assessed as variations in nuclear segmentation at 10 uM; assay type: functional, cell-based
HL-60 [12] = assay: Induction of morphological changes in human HL-60 cells assessed as appearance of wider and lighter cytoplasm at 10 uM; assay type: functional, cell-based
HL-60 [13] = assay: Induction of morphological changes in human HL-60 cells assessed as appearance of granules and vacuoles at 10 uM; assay type: functional, cell-based
[14] = Metabolic stability in mouse S9 fraction assessed as compound remaining measured after 45 mins in absence of NADPH and […]; assay type: ADME, subcellular; details: read-out: Stability
HL-60 [15] = assay: Induction of differentiation in human HL-60 cells assessed as reduction in cell number at 10 nM incubated for 4 days by acridine orange/DAPI staining based analysis; assay type: functional; details: time 4.0 day
THP-1 [16] = assay: Induction of differentiation in human THP-1 cells assessed as reduction in cell number at 10 nM incubated for 4 days by acridine orange/DAPI staining based analysis; assay type: functional; details: time 4.0 day
OCI-AML-3 [17] = assay: Induction of differentiation in human OCI-AML-3 cells assessed as reduction in cell number at 10 nM incubated for 4 days by acridine orange/DAPI staining based analysis; assay type: functional; details: time 4.0 day
KG-1 [18] = assay: Induction of differentiation in human KG-1 cells assessed as reduction in cell number at 10 nM incubated for 4 days by acridine orange/DAPI staining based analysis; assay type: functional; details: time 4.0 day
ME-1 [19] = assay: Induction of differentiation in human ME-1 cells assessed as reduction in cell number at 10 nM incubated for 4 days by acridine orange/DAPI staining based analysis; assay type: functional; details: time 4.0 day
Kasumi 1 [20] = assay: Induction of differentiation in human Kasumi 1 cells assessed as reduction in cell number at 10 nM incubated for 4 days by acridine orange/DAPI staining based analysis; assay type: functional; details: time 4.0 day

COc1ccccc1-c1cc(NC=O)c2ncc(-c3ccc4c(C)nn(C)c4c3)n2c1
solubility thermodynamic [1]: 2 µM (≈ 0.823 µg/mL)

COc1ccc(-c2cnc3c(N)cc(-c4ccccc4OC)cn23)cc1OC
solubility thermodynamic [1]: 38 µM (≈ 14.3 µg/mL)

COc1ccc(-c2cnc3c(NC=O)cc(-c4ccccc4OC)cn23)cc1OC
Activity (HL-60 [2]): <=78%
Activity (HL-60 [3]): 14%
Activity (HL-60 [4]): Active
Activity (THP-1 [5]): Active
Activity (OCI-AML-3 [6]): Active
Activity (KG-1 [7]): Active
Activity (ME-1 [8]): Active
Activity (Kasumi 1 [9]): Active
Activity (HL-60 [10]): Active
Activity (HL-60 [11]): Active
Activity (HL-60 [12]): Active
Activity (HL-60 [13]): Active
remaining at 0.75 h [14]: 28%
solubility thermodynamic [1]: 37 µM (≈ 14.9 µg/mL)

COc1cc(F)ccc1-c1cc(NS(C)(=O)=O)c2ncc(-c3ccc4c(cnn4C)c3)n2c1
solubility thermodynamic [1]: 12 µM (≈ 5.59 µg/mL)

Cc1cc(C#N)ccc1-c1cc(NS(C)(=O)=O)c2ncc(-c3ccc4c(cnn4C)c3)n2c1
solubility thermodynamic [1]: 26 µM (≈ 11.9 µg/mL)

CCCCCCCCCCCCCC(=O)O[C@@H]1[C@@H](C)[C@@]2(O)[C@@H](C=C(CO)C[C@]3(O)C(=O)C(C)=C[C@@H]23)[C@@H]2C(C)(C)[C@]12OC(C)=O
Activity (HL-60 [15]): Active
Activity (THP-1 [16]): Active
Activity (OCI-AML-3 [17]): Active
Activity (KG-1 [18]): Active
Activity (ME-1 [19]): Active
Activity (Kasumi 1 [20]): Active

COc1ccccc1-c1cc(NC=O)c2ncc(-c3ccccc3)n2c1
solubility thermodynamic [1]: 2 µM (≈ 0.687 µg/mL)

COc1ccc(-c2cnc3c(N(C)C=O)cc(-c4ccccc4OC)cn23)cc1OC
remaining at 0.75 h [14]: 46%
solubility thermodynamic [1]: 1 µM (≈ 0.417 µg/mL)

COc1ccccc1-c1cc(NC=O)c2ncc(-c3ccc4nc(C)oc4c3)n2c1
solubility thermodynamic [1]: 2 µM (≈ 0.797 µg/mL)

COc1ccccc1-c1cc(NC=O)c2ncc(-c3ccc4c(cnn4C)c3)n2c1
solubility thermodynamic [1]: 2 µM (≈ 0.795 µg/mL)

COc1ccc(-c2cnc3c(NS(C)(=O)=O)cc(-c4ccccc4OC)cn23)cc1OC
solubility thermodynamic [1]: 43 µM (≈ 19.5 µg/mL)

COc1ccc(-c2cnc3ccc(-c4ccccc4OC)cn23)cc1OC
solubility thermodynamic [1]: 156 µM (≈ 56.2 µg/mL)

COc1cc(C#N)ccc1-c1cc(NS(C)(=O)=O)c2ncc(-c3ccc4c(cnn4C)c3)n2c1
solubility thermodynamic [1]: 2 µM (≈ 0.945 µg/mL)

COc1ccccc1-c1cc(NS(C)(=O)=O)c2ncc(-c3ccc4c(cnn4C)c3)n2c1
solubility thermodynamic [1]: 18 µM (≈ 8.06 µg/mL)

COc1ccc(-c2cnc3c(N4CCOCC4)nc(-c4ccccc4OC)cn23)cc1OC
solubility thermodynamic [1]: 4 µM (≈ 1.79 µg/mL)

COc1ccccc1-c1cc(NC=O)c2ncc(-c3ccc4c(c3)c(C)nn4C)n2c1
solubility thermodynamic [1]: 6 µM (≈ 2.47 µg/mL)

Cn1ncc2cc(-c3cnc4c(NS(C)(=O)=O)cc(-c5ccc(F)cc5Cl)cn34)ccc21
solubility thermodynamic [1]: 9 µM (≈ 4.23 µg/mL)

COc1ccc(-c2cnc3c(NC=O)cc(-c4ccccc4OC)cn23)cc1C#N
solubility thermodynamic [1]: 2 µM (≈ 0.797 µg/mL)

Cc1ccccc1-c1cc(NS(C)(=O)=O)c2ncc(-c3ccc4c(cnn4C)c3)n2c1
solubility thermodynamic [1]: 13 µM (≈ 5.61 µg/mL)

CNc1nc(-c2ccccc2OC)cn2c(-c3ccc(OC)c(OC)c3)cnc12
solubility thermodynamic [1]: 39 µM (≈ 15.2 µg/mL)

COc1ccc(-n2cnc3cnc(-c4ccccc4OC)cc32)cc1OC
solubility thermodynamic [1]: 200 µM (≈ 72.3 µg/mL)

CC1=C(c2cc(NS(C)(=O)=O)c3ncc(-c4ccc5c(cnn5C)c4)n3c2)CCCC1
solubility thermodynamic [1]: 26 µM (≈ 11.3 µg/mL)

COc1ccc(-c2cnc3c(NC(C)=O)cc(-c4ccccc4OC)cn23)cc1OC
remaining at 0.75 h [14]: 1%
solubility thermodynamic [1]: 39 µM (≈ 16.3 µg/mL)

COc1ccccc1-c1cc(NC=O)c2ncc(-c3ccc4nn(C)c(C)c4c3)n2c1
solubility thermodynamic [1]: 4 µM (≈ 1.65 µg/mL)

COc1ccc(-c2cnc3c(N4CC5(COC5)C4)nc(-c4ccccc4OC)cn23)cc1OC
solubility thermodynamic [1]: 26 µM (≈ 11.9 µg/mL)

COc1ccc(-c2cnc3c(C(N)=O)cc(-c4ccccc4OC)cn23)cc1OC
solubility thermodynamic [1]: 12 µM (≈ 4.84 µg/mL)

CNc1cc(-c2ccccc2OC)cn2c(-c3ccc(OC)c(OC)c3)cnc12
remaining at 0.75 h [14]: 81%
solubility thermodynamic [1]: 8 µM (≈ 3.12 µg/mL)

COc1ccccc1-c1cc(NC=O)c2nccn2c1
solubility thermodynamic [1]: > 200 µM

COc1ccc(-c2cnc3ncc(-c4ccccc4OC)cn23)cc1OC
remaining at 0.75 h [14]: 70%
solubility thermodynamic [1]: 1 µM (≈ 0.361 µg/mL)

COc1ccc(-c2cnc3c(NC=O)nc(-c4ccccc4OC)cn23)cc1OC
remaining at 0.75 h [14]: 0.5%
solubility thermodynamic [1]: 1 µM (≈ 0.404 µg/mL)
